{"source": "paper PMC7312375", "about": "“A Novel, Pan-PDE Inhibitor Exerts Anti-Fibrotic Effects in Human Lung Fibroblasts via Inhibition of TGF-β Signaling and Activation of cAMP/PKA Signaling” (International Journal of Molecular Sciences, 2020)", "type_in_all_cases": "cell-based, human", "key": {"MRC-5 cells [1]": {"system": "MRC-5 cells", "experiment": "cAMP ELISA", "conditions": "10 µM, 30 min", "method": "MRC-5 cells were seeded in standard culture medium for 24 h and then serum-starved for 2 h in HBSS. The study compounds (10 µM) were added to the MRC-5 cultures and after 30 min of incubation, the intracellular cAMP level in cell lysates was measured using a colorimetric cAMP ELISA Kit according to the manufacturer’s protocol (Cell Biolabs, INC., San Diego, CA, USA). Obtained results were normalized to total protein content in each sample. The experiments were run two times in duplicates."}, "[2]": {"system": "TGF-β1-induced MRC-5 cells", "experiment": "Protein kinase A activity", "conditions": "10 µM 30 min, then TGF-β1 30 min", "method": "Protein Kinase A (PKA) activity in MRC-5 cells was determined using a PKA Colorimetric Activity Kit (Invitrogen, Carlsbad, CA, USA) according to the manufacturer’s protocol. MRC-5 cells were seeded in standard culture medium, and after 48 h they were serum-starved for 2 h in HBSS, followed by the addition of study compounds (10 µM) and incubation for 30 min. Finally, TGF-β1 was administered, and the samples were incubated for an additional 30 min. Whole cell lysates were used in the assay. The amount of PKA was normalized to the total protein content in each sample. The experiments were run two times in duplicates."}, "[3]": {"system": "TGF-β1-induced MRC-5 cells", "experiment": "Western blot of p-CREB", "conditions": "10 µM", "method": "Western Blot analysis was performed according to a standard protocol. Briefly, MRC-5 cells were pre-incubated with the study compounds (10 µM) for 1 h, followed by 48 h incubation with TGF-β1 and then lysed in RIPA buffer (RIPA Lysis and Extraction Buffer, Thermo Fisher Scientific, Waltham, MA, USA) and supplemented with protease inhibitor cocktail and phosphatase inhibitor cocktail (both from Sigma Aldrich, St. Louis, MO, USA). Equal amounts of protein (30 µg) were separated using 10% SDS-polyacrylamide gels and transferred onto polyvinylidene difluoride (PVDF) membranes (Thermo Fisher Scientific, Waltham, MA, USA). […] ROD was measured according to the NIH guidelines with Fiji ImageJ Software. […]"}, "[4]": {"system": "TGF-β1-induced MRC-5 cells", "experiment": "Immunofluorescence, nuclear localization of p-CREB", "conditions": "10 µM", "method": "For immunocytochemical labeling, MRC-5 cells were seeded on glass coverslips. Study compounds (10 µM) were added 1 h before TGF-β1 treatment, and analysis was performed after 1 h (p-Smad-2 and p-CREB detection) or 48 h (α-SMA detection) of incubation. Cells were fixed in methanol or 4% formaldehyde solution, permeabilized in 0.2% or 0.1% Triton X-100 solution (for p-Smad-2 and p-CREB or α-SMA, respectively). After incubation in blocking solution the following primary antibodies: rabbit polyclonal, anti-phospho-Smad-2 (Ser465, Ser467) antibody (#44-244G, Thermo Fisher Scientific, Waltham, MA, USA); rabbit polyclonal, anti-phospho-CREB1 (Ser133) antibody (#orb213775, Biorbyt, Cambridge, United Kingdom); mouse monoclonal, anti-α-SMA antibody (#MA5-11547, Thermo Fisher Scientific, Waltham, MA, USA) and secondary antibodies: goat anti-rabbit Alexa Fluor 546 conjugated antibody and goat anti-mouse Alexa Fluor 488 conjugated antibody (#A-11010 and #A-11001, respectively, Invitrogen, Carlsbad, CA, USA) were used. Nuclei were counterstained with Hoechst 33342 dye (Thermo Fisher Scientific, Waltham, MA, USA). Slides were mounted in ProLong™ Glass Antifade Mountant (Invitrogen, Carlsbad, CA, USA) and analyzed using Leica DMiL LED Fluo microscope (for α-SMA and p-CREB visualization, 40× objective) or Leica DMi8 with Thunder Imaging System (for p-Smad-2 visualization, 40× objective), all equipped with LAS-X Software (Leica Microsystems GmbH, Wetzlar, Germany). Experiments were run four times using five randomly selected fields of view, at the same fluorescent time exposure and in a blind-folded manner."}, "MRC-5 cells [5]": {"system": "MRC-5 cells", "experiment": "TGF-β1-induced collagen gel contraction assay", "conditions": "10 µM, 1 h pre-incubation, 6 h TGF-β1; compared to TGF-β1 alone", "method": "A collagen cell contraction assay was performed according to manufactures’ instructions (Cell Biolabs, INC., San Diego, CA, USA). Briefly, MRC-5 was harvested and mixed with a collagen solution. After polymerization, collagen gel lattices were cultured for two days, during which mechanical tension develops. Before releasing the stressed matrix, MRC-5 cells were pre-treated with study compounds (10 µM) for 1 h. Then collagen gels were gently released from the sides of the culture dishes and contraction in the presence of study compounds, and TGF-β1 was initiated. The collagen gel size was monitored at various time points and quantified with the Fiji ImageJ Software (National Institutes of Health, Bethesda, MD, USA, version 1.52q). The experiments were run three times."}}, "data": [{"smiles": "C=C[C@@]1(C)CC(=O)[C@]2(O)[C@@]3(C)[C@@H](O)CCC(C)(C)[C@@H]3[C@H](O)[C@H](OC(C)=O)[C@@]2(C)O1", "note": "[forskolin, reference compound]", "values": [{"measurement": "increase in cAMP level compared to control", "setting": "MRC-5 cells [1]", "value": 5.7, "unit": "fold"}, {"measurement": "Protein kinase A activity in TGF-β1-induced fibroblasts", "setting": "[2]", "value": "the highest"}, {"measurement": "CREB phosphorylation (immunoblot)", "setting": "[3]", "value": "increased CREB phosphorylation"}, {"measurement": "elevation of fraction of MRC-5 cells with nuclear p-CREB localization", "setting": "[4]", "value": 76, "unit": "%"}, {"measurement": "size of collagen gel lattices (TGF-β1-induced contraction)", "setting": "MRC-5 cells [5]", "value": "showed similar properties as 145 or IBMX"}]}]}
